Each compound was assayed on NQO1 specific enzyme activity in BEAS-2B cells (marker for NRF2 activation) (assay: BEAS-2B NQO1 MTT Assay). Settings: Homo sapiens, BEAS-2B, 48 h, NQO1 specific activity induction, 48 hours with compound.
Type: cell-based
Source text: NAD(P)H:quinone oxidoreductase 1 (NQO1), also called DT diaphorase, is a homodimeric FAD-containing enzyme that catalyzes obligatory NAD(P)H-dependent two-electron reductions of quinones and protects cells against the toxic and neoplastic effects of free radicals and reactive oxygen species arising from one-electron reductions. The transcription of NQO1 is finely regulated by NRF2, and thus NQO1 activity is a good marker for NRF2 activation. On day one, frozen BEAS-2B cells (ATCC) were thawed in a water bath, counted, and re-suspended at a concentration of 250,000 cells/mL. Fifty microliters of cells were plated in 384 well black clear-bottomed plates. Plates were incubated at 37° C., 5% CO2 overnight. On day two, plates were centrifuged and 50 nL of compound or controls were added to the cells. Plates were then incubated at 37° C., 5% CO2 for 48 hours. On day four, medium was aspirated from the plate and crude cell lysates were made by adding 13 uL of 1× Cell Signaling Technologies lysis buffer with 1 Complete, Mini, EDTA-free Protease Inhibitor Tablet (Roche) for each 10 mL of lysis buffer. After lysis plates were incubated for 20 minutes at room temperature. Two microliters of lysate were removed for use in Cell Titer Glo assay (Promega) and MTT cocktail was prepared (Prochaska et. al. 1998) for measurement of NQO1 activity. Fifty microliters of MTT cocktail is added to each well, plate is centrifuged, and analyzed on an Envision plate reader (Perkin Elmer) using Absorbance 570 nm label for 30 minutes. Product formation was measured kinetically and the pEC50 of NQO1 specific activity induction was calculated by plotting the change in absorbance (Delta OD/min) versus the log of compound concentration followed by 3-parameter fitting.
pEC50 is the negative log of the EC50.
EC50s<1 nM (+++++), EC50s 1 nM-10 nM (++++), EC50s 10 nM-100 nM (+++), EC50s 100 nM-1 uM (++), EC50s 1 uM-10 uM (+), EC50s>10 uM (−), or were not determined (ND).

Which EC50 does the source give for `CCn1nnc2c(C)c([C@H](c3cc(CN4C[C@@H](C)Cc5ccccc5S4(=O)=O)c(C)s3)C(C)(C)C(=O)O)ccc21` [Example 18, (S)-3-(1-Ethyl-4-methyl-1H-benzo[d][1,2,3]triazol-5-yl)-2,2-dimethyl-3-(5-methyl-4-(((S)-4-methyl-1,1-dioxido-4,5-dihydrobenzo[f][1,2]thiazepin-2(3H)-yl)methyl)thiophen-2-yl)propanoic Acid] here?
The EC50 was < 1 nM.

Which EC50 does the source give for `CCn1nnc2c(C)c([C@H](c3cc(CN4C[C@@H](C)Cc5ncccc5S4(=O)=O)c(C)s3)C(C)(C)C(=O)O)ccc21` [Example 19, (S)-3-(1-Ethyl-4-methyl-1H-benzo[d][1,2,3]triazol-5-yl)-2,2-dimethyl-3-(5-methyl-4-(((S)-4-methyl-1,1-dioxido-4,5-dihydropyrido[2,3-f][1,2]thiazepin-2(3H)-yl)methyl)thiophen-2-yl)propanoic Acid] here?
Its EC50 is < 1 nM.

For `CC[C@@H]1CN(Cc2cc([C@H](CC(=O)O)c3ccc4c(nnn4CC)c3C)sc2Cl)S(=O)(=O)c2cnccc2O1` [Example 22, (R)-3-(5-chloro-4-(((R)-4-ethyl-1,1-dioxido-3,4-dihydro-2H-pyrido[4,3-b][1,4,5]oxathiazepin-2-yl)methyl)thiophen-2-yl)-3-(1-ethyl-4-methyl-1H-benzo[d][1,2,3]triazol-5-yl)propanoic Acid], which EC50 is on record?
Its EC50 is 10 to 100 nM.

With `CCn1nnc2c(C)c([C@@H](c3cc(CN4C[C@@H](C)Cc5ncccc5S4(=O)=O)n(C)n3)C(C)(C)C(=O)O)ccc21` [Example 23, (R)-3-(1-Ethyl-4-methyl-1H-benzo[d][1,2,3]triazol-5-yl)-2,2-dimethyl-3-(1-methyl-5-(((S)-4-methyl-1,1-dioxido-4,5-dihydropyrido[2,3-f][1,2]thiazepin-2(3H)-yl)methyl)-1H-pyrazol-3-yl)propanoic Acid] as the compound, how does the EC50 read?
The EC50 was 1000 to 10000 nM.

With `CC[C@@H]1CN(Cc2cc([C@@H](CC(=O)O)c3ccc4c(nnn4CC)c3C)sc2C)S(=O)(=O)c2cccnc2O1` [Example 24, (S)-3-(4-(((R)-4-Ethyl-1,1-dioxido-3,4-dihydro-2H-pyrido[2,3-b][1,4,5]oxathiazepin-2-yl)methyl)-5-methylthiophen-2-yl)-3-(1-ethyl-4-methyl-1H-benzo[d][1,2,3]triazol-5-yl)propanoic Acid] as the compound, how does the EC50 read?
Its EC50 is 100 to 1000 nM.

`CC[C@@H]1CN(Cc2nc([C@@H](c3ccc4c(nnn4CC)c3C)C(C)(C)C(=O)Nc3cccnc3)sc2C)S(=O)(=O)c2cccnc2O1` [Example 25, (S)-3-(4-(((R)-4-Ethyl-1,1-dioxido-3,4-dihydro-2H-pyrido[2,3-b][1,4,5]oxathiazepin-2-yl)methyl)-5-methylthiazol-2-yl)-3-(1-ethyl-4-methyl-1H-benzo[d][1,2,3]triazol-5-yl)-2,2-dimethyl-N-(pyridin-3-yl)propanamide] was tested. Which EC50 did it give?
Its EC50 is 100 to 1000 nM.

For `CC[C@@H]1CN(Cc2nc([C@@H](c3ccc4c(nnn4CC)c3C)C(C)(C)C(=O)O)sc2C)S(=O)(=O)c2cccnc2O1` [Example 26, (S)-3-(4-(((R)-4-Ethyl-1,1-dioxido-3,4-dihydro-2H-pyrido[2,3-b][1,4,5]oxathiazepin-2-yl)methyl)-5-methylthiazol-2-yl)-3-(1-ethyl-4-methyl-1H-benzo[d][1,2,3]triazol-5-yl)-2,2-dimethylpropanoic Acid], which EC50 is on record?
The EC50 was 1 to 10 nM.

With `CC[C@@H]1CN(Cc2nc([C@@H](c3ccc4c(nnn4CC)c3C)C(C)(C)C(=O)O)sc2C)S(=O)(=O)c2cnccc2O1` [Example 27, (S)-3-(4-(((R)-4-Ethyl-1,1-dioxido-3,4-dihydro-2H-pyrido[4,3-b][1,4,5]oxathiazepin-2-yl)methyl)-5-methylthiazol-2-yl)-3-(1-ethyl-4-methyl-1H-benzo[d][1,2,3]triazol-5-yl)-2,2-dimethylpropanoic Acid] as the compound, how does the EC50 read?
The EC50 was < 1 nM.

How did the EC50 turn out when `CC[C@@H]1CN(Cc2nc([C@@H](c3ccc4c(nnn4CC)c3C)C(C)(C)C(=O)Nc3cccnc3)sc2C)S(=O)(=O)c2cnccc2O1` [Example 28, (S)-3-(4-(((R)-4-Ethyl-1,1-dioxido-3,4-dihydro-2H-pyrido[4,3-b][1,4,5]oxathiazepin-2-yl)methyl)-5-methylthiazol-2-yl)-3-(1-ethyl-4-methyl-1H-benzo[d][1,2,3]triazol-5-yl)-2,2-dimethyl-N-(pyridin-3-yl)propanamide] was run?
The EC50 was 100 to 1000 nM.

`CC[C@@H]1CN(Cc2nc([C@@H](c3ccc4c(nnn4CC)c3C)C(C)(C)C(=O)O)sc2C)S(=O)(=O)c2ncccc2O1` [Example 29, (S)-3-(4-(((R)-4-Ethyl-1,1-dioxido-3,4-dihydro-2H-pyrido[3,2-b][1,4,5]oxathiazepin-2-yl)methyl)-5-methylthiazol-2-yl)-3-(1-ethyl-4-methyl-1H-benzo[d][1,2,3]triazol-5-yl)-2,2-dimethylpropanoic Acid] was tested. Which EC50 did it give?
The EC50 was 1 to 10 nM.

How did the EC50 turn out when `CC[C@@H]1CN(Cc2nc([C@@H](c3ccc4c(nnn4CC)c3C)C(C)(C)C(=O)Nc3cccnc3)sc2C)S(=O)(=O)c2ncccc2O1` [Example 30, (S)-3-(4-(((R)-4-Ethyl-1,1-dioxido-3,4-dihydro-2H-pyrido[3,2-b][1,4,5]oxathiazepin-2-yl)methyl)-5-methylthiazol-2-yl)-3-(1-ethyl-4-methyl-1H-benzo[d][1,2,3]triazol-5-yl)-2,2-dimethyl-N-(pyridin-3-yl)propanamide] was run?
The EC50 was 100 to 1000 nM.

`CCn1nnc2c(C)c([C@H](c3cc(CN4C[C@@H](C)Cc5ncccc5S4(=O)=O)n(C)n3)C(C)(C)C(=O)O)ccc21` [Example 31, (S)-3-(1-Ethyl-4-methyl-1H-benzo[d][1,2,3]triazol-5-yl)-2,2-dimethyl-3-(1-methyl-5-(((S)-4-methyl-1,1-dioxido-4,5-dihydropyrido[2,3-f][1,2]thiazepin-2(3H)-yl)methyl)-1H-pyrazol-3-yl)propanoic Acid] was tested. Which EC50 did it give?
Its EC50 is 100 to 1000 nM.

For `CCn1nnc2c(C)c([C@H](c3cc(CN4CCC[C@H](n5cccn5)C4)c(C)s3)C(C)(C)C(=O)O)ccc21` [Example 32, (S)-3-(4-(((S)-3-(1H-Pyrazol-1-yl)piperidin-1-yl)methyl)-5-methylthiophen-2-yl)-3-(1-ethyl-4-methyl-1H-benzo[d][1,2,3]triazol-5-yl)-2,2-dimethylpropanoic acid], which EC50 is on record?
The EC50 was 100 to 1000 nM.

With `CC[C@H]1Cc2ncccc2S(=O)(=O)N(Cc2nc([C@@H](c3ccc4c(nnn4CC)c3C)C(C)(C)C(=O)O)sc2C)C1` [Example 33, (S)-3-(4-(((S)-4-Ethyl-1,1-dioxido-4,5-dihydropyrido[2,3-f][1,2]thiazepin-2(3H)-yl)methyl)-5-methylthiazol-2-yl)-3-(1-ethyl-4-methyl-1H-benzo[d][1,2,3]triazol-5-yl)-2,2-dimethylpropanoic Acid] as the compound, how does the EC50 read?
The EC50 was < 1 nM.

For `CC[C@H]1Cc2ncccc2S(=O)(=O)N(Cc2nc([C@@H](c3ccc4c(nnn4CC)c3C)C(C)(C)C(=O)Nc3cccnc3)sc2C)C1` [Example 34, (S)-3-(4-(((S)-4-Ethyl-1,1-dioxido-4,5-dihydropyrido[2,3-f][1,2]thiazepin-2(3H)-yl)methyl)-5-methylthiazol-2-yl)-3-(1-ethyl-4-methyl-1H-benzo[d][1,2,3]triazol-5-yl)-2,2-dimethyl-N-(pyridin-3-yl)propanamide], which EC50 is on record?
The EC50 was 100 to 1000 nM.

For `CC[C@@H]1CN(Cc2cc([C@H](c3ccc4c(nnn4CC)c3C)C(C)(C)C(=O)O)sc2Cl)S(=O)(=O)c2cnccc2O1` [Example 36, (R)-3-(5-Chloro-4-(((R)-4-ethyl-1,1-dioxido-3,4-dihydro-2H-pyrido[4,3-b][1,4,5]oxathiazepin-2-yl)methyl)thiophen-2-yl)-3-(1-ethyl-4-methyl-1H-benzo[d][1,2,3]triazol-5-yl)-2,2-dimethylpropanoic Acid], which EC50 is on record?
Its EC50 is 100 to 1000 nM.

Which EC50 does the source give for `CCn1nnc2c(C)c([C@@H](c3cc(CN4C[C@@H](C)Cc5ccc(C(F)(F)F)cc5S4(=O)=O)n(C)n3)C(C)(C)C(=O)O)ccc21` [Example 37, (R)-3-(1-Ethyl-4-methyl-1H-benzo[d][1,2,3]triazol-5-yl)-2,2-dimethyl-3-(1-methyl-5-(((S)-4-methyl-1,1-dioxido-8-(trifluoromethyl)-4,5-dihydrobenzo[f][1,2]thiazepin-2(3H)-yl)methyl)-1H-pyrazol-3-yl)propanoic Acid] here?
The EC50 was 100 to 1000 nM.

`CCn1nnc2c(C)c([C@H](c3cc(CN4C[C@@H](C)Cc5ccccc5S4(=O)=O)c(C)s3)C(C)(C)C(N)=O)ccc21` [Example 39, (S)-3-(1-Ethyl-4-methyl-1H-benzo[d][1,2,3]triazol-5-yl)-2,2-dimethyl-3-(5-methyl-4-(((S)-4-methyl-1,1-dioxido-4,5-dihydrobenzo[f][1,2]thiazepin-2(3H)-yl)methyl)thiophen-2-yl)propanamide] was tested. Which EC50 did it give?
Its EC50 is 10 to 100 nM.

With `CC[C@@H]1CN(Cc2cc([C@H](c3ccc4c(nnn4CC)c3F)C(C)(C)C(=O)O)sc2Cl)S(=O)(=O)c2ccccc2O1` [Example 40, (S)-3-(5-Chloro-4-(((R)-4-ethyl-1,1-dioxido-3,4-dihydro-2H-benzo[b][1,4,5]oxathiazepin-2-yl)methyl)thiophen-2-yl)-3-(1-ethyl-4-fluoro-1H-benzo[d][1,2,3]triazol-5-yl)-2,2-dimethylpropanoic Acid] as the compound, how does the EC50 read?
Its EC50 is 10 to 100 nM.

From patent publication US11117905B2, “Bisaryl heterocycles as NRF2 activators” (GLAXOSMITHKLINE INTELLECTUAL PROPERTY DEVELOPMENT LIMITED, priority 2016, dated 2021)
